18 molecules from patent US9796742B2, “Kinase inhibitors” (Respivert Limited, priority 2012, dated 2017) can be followed below.

The target of one assay is GSK3α (Homo sapiens (Human), UniProt P49840). Kind of assay: GSK 3α enzyme inhibition (FRET, Z-LYTE; Method 2). It counts as biochemical. As for the experimental part:
The enzyme inhibitory activities of compounds disclosed herein are determined by FRET using synthetic peptides labelled with both donor and acceptor fluorophores (Z-LYTE, Invitrogen Ltd., Paisley, UK).
The inhibitory activities of compounds of the invention against the GSK 3α enzyme isoform (Invitrogen), are evaluated by determining the level of activation/phosphorylation of the target peptide. The GSK3-α protein (500 ng/mL, 2.5 μL) is mixed with the test compound (2.5 μL at either 4 μg/mL, 0.4 μg/mL, 0.04 μg/mL, or 0.004 μg/mL) for 2 hr at RT. The FRET peptide (8 μM, 2.5 μL), which is a phosphorylation target for GSK3α, and ATP (40 μM, 2.5 μL) are then added to the enzyme/compound mixture and the resulting mixture incubated for 1 hr. Development reagent (protease, 5 μL) is added for 1 hr prior to detection in a fluorescence microplate reader (Varioskan® Flash, ThermoFisher Scientific).
In all cases, the site-specific protease cleaves non-phosphorylated peptide only and eliminates the FRET signal. Phosphorylation levels of each reaction are calculated using the ratio of coumarin emission (donor) over fluorescein emission (acceptor), for which high ratios indicate high phosphorylation and low ratios indicate low phosphorylation levels. The percentage inhibition of each reaction is calculated relative to non-inhibited control and the 50% inhibitory concentration (IC50 value) is then calculated from the concentration-response curve.
This method follows the same steps as Method 1 above, but utilises a shorter period of mixing of the test compound (105 minutes instead of 2 hours) with the GSK3-α protein.

The next assay concerns PBMCs. Kind of assay: LPS-induced TNFα/IL-8 release in PBMC cells. It counts as cell-based. Particulars: Homo sapiens, LPS-stimulated PBMCs. As for the experimental part:
Peripheral blood mononuclear cells (PBMCs) from healthy subjects are separated from whole blood using a density gradient (Lymphoprep, Axis-Shield Healthcare). The PBMCs are seeded in 96 well plates and treated with compounds at the desired concentration for 2 hours before addition of 1 ng/mL LPS (Escherichia Coli 0111:B4 from Sigma Aldrich) for 24 hours under normal tissue culture conditions (37° C., 5% CO2). The supernatant is harvested for determination of IL-8 and TNFα concentrations by sandwich ELISA (Duo-set, R&D systems) and read on the fluorescence microplate reader (Varioskan® Flash, ThermoFisher Scientific). The concentration at 50% inhibition (IC50) of IL-8 and TNFα production is calculated from the dose response curve.

[1] abbreviates: IL-8, read-out: IC50 Values for Inhibition of Cytokine Release, PBMCs IL-8.
Where [2] appears, read: TNFα, read-out: IC50 Values for Inhibition of Cytokine Release, PBMCs TNFα.

Molecules are shown by their SMILES. Where two headings read alike, the source gives them in different places.

Chain of GSK3α (P49840 whole entry): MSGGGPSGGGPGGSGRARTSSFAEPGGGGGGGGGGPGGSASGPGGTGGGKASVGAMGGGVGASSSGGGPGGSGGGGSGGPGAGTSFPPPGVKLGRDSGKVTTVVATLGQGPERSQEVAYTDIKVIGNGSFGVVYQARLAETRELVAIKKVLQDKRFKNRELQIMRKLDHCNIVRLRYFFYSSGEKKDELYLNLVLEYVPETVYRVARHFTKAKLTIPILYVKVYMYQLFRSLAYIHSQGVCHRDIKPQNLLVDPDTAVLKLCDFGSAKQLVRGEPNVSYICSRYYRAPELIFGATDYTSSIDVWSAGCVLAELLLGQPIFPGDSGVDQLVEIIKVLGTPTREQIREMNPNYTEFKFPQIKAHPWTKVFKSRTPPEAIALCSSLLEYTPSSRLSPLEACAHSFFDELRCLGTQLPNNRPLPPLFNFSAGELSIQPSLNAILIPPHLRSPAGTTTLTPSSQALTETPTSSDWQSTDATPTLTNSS

In the case of `C[Si](C)(C)c1cc(NC(=O)Nc2ccc(Oc3ccnc(Nc4ccccc4)n3)c3ccccc23)n(-c2ccc(P(C)(C)=O)cc2)n1` [Example 5, 1-(1-(4-(Dimethylphosphoryl)phenyl)-3-(trimethylsilyl)-1H-pyrazol-5-yl)-3-(4-((2-(phenyl-amino)pyrimidin-4-yl)oxy)naphthalen-1-yl)urea], the IC50 against GSK3α amounted to 0.429 µM; in the assay with PBMCs (setting [1]) it was 0.0163 µM; in the assay with PBMCs (setting [2]), 0.0043 µM.

`CC(C)(C)c1cc(NC(=O)Nc2ccc(Oc3ccnc(Nc4ccccc4)n3)c3ccccc23)n(-c2ccc(CP(C)(C)=O)cc2)n1` [Example 6, 1-(3-(tert-Butyl)-1-(4-((dimethylphosphoryl)methyl)phenyl)-1H-pyrazol-5-yl)-3-(4-((2-(phenylamino)pyrimidin-4-yl)oxy)naphthalen-1-yl)urea]: the IC50 against GSK3α was 0.183 µM; in the assay on PBMCs (setting [1]), 0.0064 µM; in the assay on PBMCs (setting [2]) it was 0.0025 µM.

In the case of `CC(C)(C)c1cc(NC(=O)Nc2ccc(Oc3ccnc(Nc4ccc5[nH]ncc5c4)n3)c3ccccc23)n(-c2ccc(P(C)(C)=O)cc2)n1` [Example 7, 1-(4-((2-((1H-Indazol-5-yl)amino)pyrimidin-4-yl)oxy)naphthalen-1-yl)-3-(3-(tert-butyl)-1-(4-(dimethylphosphoryl)phenyl)-1H-pyrazol-5-yl)urea], the figures for the IC50 against GSK3α, in the assay with PBMCs (setting [1]) and in the assay on PBMCs (setting [2]) were 0.486 µM, 0.0067 µM and 0.0025 µM, respectively.

In the case of `CC(C)(C)c1cc(NC(=O)Nc2ccc(Oc3ccnc(Nc4ccccc4)n3)c3ccccc23)n(-c2ccc(P3(=O)CCCC3)cc2)n1` [Example 8, 1-(3-(tert-Butyl)-1-(4-(1-oxidophospholan-1-yl)phenyl)-1H-pyrazol-5-yl)-3-(4-((2-(phenylamino)pyrimidin-4-yl)oxy)naphthalen-1-yl)urea], the IC50 is 0.849 µM at GSK3α, 0.0172 µM with PBMCs (setting [1]) and 0.0048 µM with PBMCs (setting [2]).

Regarding `CCOP(C)(=O)c1ccc(-n2nc(C(C)(C)C)cc2NC(=O)Nc2ccc(Oc3ccnc(Nc4ccccc4)n3)c3ccccc23)cc1` (stereo not shown) [Example 9, Ethyl (4-(3-(tert-butyl)-5-(3-(4-((2-(phenylamino)pyrimidin-4-yl)oxy)naphthalen-1-yl)-ureido)-1H-pyrazol-1-yl)phenyl)(methyl)phosphinate], the IC50 against GSK3α is 1.45 µM; in the assay on PBMCs (setting [1]) it was 0.024 µM; in the assay on PBMCs (setting [2]), 0.0062 µM.

As to `CC(C)(C)c1cc(NC(=O)Nc2ccc(Oc3ccnc(Nc4ccc5[nH]ncc5c4)n3)c3ccccc23)n(-c2cccc(P(C)(C)=O)c2)n1` [Example 10, 1-(4-((2-((1H-Indazol-5-yl)amino)pyrimidin-4-yl)oxy)naphthalen-1-yl)-3-(3-(tert-butyl)-1-(3-(dimethylphosphoryl)phenyl)-1H-pyrazol-5-yl)urea], the IC50 is 0.684 µM at GSK3α, 0.0137 µM in the assay on PBMCs (setting [1]) and 0.004 µM in the assay on PBMCs (setting [2]).

Turning to `CC(C)(C)c1cc(NC(=O)Nc2ccc(Oc3ccnc(Nc4ccc5c(c4)NC(=O)C5)n3)c3ccccc23)n(-c2cccc(P(C)(C)=O)c2)n1` [Example 11], the IC50 came out at 0.205 µM at GSK3α, 0.0162 µM with PBMCs (setting [1]) and 0.0027 µM in the assay with PBMCs (setting [2]).

Take `CC(C)(C)c1cc(NC(=O)Nc2ccc(Oc3ccnc(Nc4ccc5onc(N)c5c4)n3)c3ccccc23)n(-c2cccc(P(C)(C)=O)c2)n1` [Example 12]: the IC50 is 0.073 µM against GSK3α, 0.0085 µM in the assay with PBMCs (setting [1]) and 0.0018 µM in the assay on PBMCs (setting [2]).

For the molecule `Cc1cc(Nc2nccc(Oc3ccc(NC(=O)Nc4cc(C(C)(C)C)nn4-c4cccc(P(C)(C)=O)c4)c4ccccc34)n2)cc2cn[nH]c12` [Example 13, 1-(3-(tert-Butyl)-1-(3-(dimethylphosphoryl)phenyl)-1H-pyrazol-5-yl)-3-(4-((2-((7-methyl-1H-indazol-5-yl)amino)pyrimidin-4-yl)oxy)naphthalen-1-yl)urea], the IC50 on GSK3α came out at 0.208 µM; with PBMCs (setting [1]), 0.0034 µM; with PBMCs (setting [2]), 0.0017 µM.

With `CC(C)(C)c1cc(NC(=O)Nc2ccc(Oc3ccnc(Nc4ccc5c(c4)NC(=O)C5)n3)c3ccccc23)n(-c2ccc(P(C)(C)=O)cc2)n1` [Example 14, 1-(3-(tert-Butyl)-1-(4-(dimethylphosphoryl)phenyl)-1H-pyrazol-5-yl)-3-(4-((2-((2-oxoindolin-6-yl)amino)pyrimidin-4-yl)oxy)naphthalen-1-yl)urea], the IC50 worked out at 0.294 µM against GSK3α, 0.0132 µM with PBMCs (setting [1]) and 0.004 µM in the assay with PBMCs (setting [2]).

As to `CC(C)(C)c1cc(NC(=O)Nc2ccc(Oc3ccnc(Nc4cccc(C(=O)NCCN5CCOCC5)c4)n3)c3ccccc23)n(-c2cccc(P(C)(C)=O)c2)n1` [Example 16, 3-((4-((4-(3-(3-(tert-Butyl)-1-(3-(dimethylphosphoryl)phenyl)-1H-pyrazol-5-yl)ureido)-naphthalen-1-yl)oxy)pyrimidin-2-yl)amino)-N-(2-morpholinoethyl)benzamide], the IC50 against GSK3α stood at 0.072 µM; in the assay with PBMCs (setting [1]), 0.0083 µM; in the assay with PBMCs (setting [2]), 0.0043 µM.

For `CC(C)(C)c1cc(NC(=O)Nc2ccc(Oc3ccnc(Nc4cccc(OCCN5CCOCC5)c4)n3)c3ccccc23)n(-c2ccc(P(C)(C)=O)cc2)n1` [Example 17, 1-(3-(tert-Butyl)-1-(4-(dimethylphosphoryl)phenyl)-1H-pyrazol-5-yl)-3-(4-((2-((3-(2-morpholinoethoxy)phenyl)amino)pyrimidin-4-yl)oxy)naphthalen-1-yl)urea], the IC50 at GSK3α turned out to be 0.074 µM; in the assay with PBMCs (setting [1]), 0.0054 µM; with PBMCs (setting [2]), 0.0018 µM.

`CC(C)(C)c1cc(NC(=O)Nc2ccc(Oc3ccnc(Nc4ccc(SCCO)cc4)n3)c3ccccc23)n(-c2ccc(P(C)(C)=O)cc2)n1` [Example 18, 1-(3-(tert-Butyl)-1-(4-(dimethylphosphoryl)phenyl)-1H-pyrazol-5-yl)-3-(4-((2-((4-((2-hydroxyethyl)thio)phenyl)amino)pyrimidin-4-yl)oxy)naphthalen-1-yl)urea]: the IC50 against GSK3α came to 0.168 µM; in the assay with PBMCs (setting [1]), 0.0072 µM; in the assay with PBMCs (setting [2]), 0.0029 µM.

For `CC(C)(C)c1cc(NC(=O)Nc2ccc(Oc3ccnc(Nc4ccccc4)n3)c3ccccc23)n(-c2ccc(P(C)(=O)O)cc2)n1` [Example 19, (4-(3-(tert-Butyl)-5-(3-(4-((2-(phenylamino)pyrimidin-4-yl)oxy)naphthalen-1-yl)ureido)-1H-pyrazol-1-yl)phenyl)(methyl)phosphinic acid], the figures for the IC50 on GSK3α and with PBMCs (setting [1]) were 0.076 µM and 0.407 µM, respectively.

Consider `CC(C)(C)c1cc(NC(=O)Nc2ccc(Oc3ccnc(Nc4ccc5onc(N)c5c4)n3)c3ccccc23)n(-c2ccc(P(C)(C)=O)cc2)n1` [Example 20, 1-(4-((2-((3-Aminobenzo[d]isoxazol-5-yl)amino)pyrimidin-4-yl)oxy)naphthalen-1-yl)-3-(3-(tert-butyl)-1-(4-(dimethylphosphoryl)phenyl)-1H-pyrazol-5-yl)urea], for which the results for the IC50 against GSK3α and in the assay on PBMCs (setting [1]) were 0.068 µM and 0.009 µM, respectively.

For the molecule `CC(C)(C)c1cc(NC(=O)Nc2ccc(Oc3ccnc(Nc4cccc(C(=O)NCCN5CCOCC5)c4)n3)c3ccccc23)n(-c2ccc(P(C)(C)=O)cc2)n1` [Example 24, 3-((4-((4-(3-(3-(tert-Butyl)-1-(4-(dimethylphosphoryl)phenyl)-1H-pyrazol-5-yl)ureido)-naphthalen-1-yl)oxy)pyrimidin-2-yl)amino)-N-(2-morpholinoethyl)benzamide], the results for the IC50 at GSK3α and in the assay with PBMCs (setting [1]) were 0.293 µM and 0.0263 µM, respectively.

For `CC(C)(C)c1cc(NC(=O)Nc2ccc(Oc3ccnc(Nc4ccc(P(C)(C)=O)cc4)n3)c3ccccc23)n(-c2ccc(P(C)(C)=O)cc2)n1` [Example 25, 1-(3-(tert-Butyl)-1-(4-(dimethylphosphoryl)phenyl)-1H-pyrazol-5-yl)-3-(4-((2-((4-(dimethyl-phosphoryl)phenyl)amino)pyrimidin-4-yl)oxy)naphthalen-1-yl)urea], the IC50 is 0.163 µM against GSK3α and 0.0144 µM with PBMCs (setting [1]).

Turning to `CC(C)(C)c1cc(NC(=O)Nc2ccc(Oc3ccnc(N4CCC[C@H]4CO)n3)c3ccccc23)n(-c2ccc(P(C)(C)=O)cc2)n1` [Example 26, (S)-1-(3-(tert-Butyl)-1-(4-(dimethylphosphoryl)phenyl)-1H-pyrazol-5-yl)-3-(4-((2-(2-(hydroxymethyl)pyrrolidin-1-yl)pyrimidin-4-yl)oxy)naphthalen-1-yl)urea], the IC50 came out at 8.13 µM against GSK3α and 0.189 µM with PBMCs (setting [1]).
